Test results as given in article PMC9788395, “Cell-Penetrating Peptide–Peptide Nucleic Acid Conjugates as a Tool for Protein Functional Elucidation in the Native Bacterium” (Molecules, 2022).
Non-standard residues stand in square brackets, D forms with d. Residues, ends and D or L forms follow the SMILES beside them. Dab = NCC[C@H](N)C(=O)O

Test system: Paenibacillus sp. YYML68
Format: cell-based
Conditions: not told
Method: Figure S5. Evaluation of (DabFF)3K-FAM permeation into Paenibacillus sp. YYML68. (DabFF)3Dab- […]
FAM permeation was performed at 2 µM concentration in PBS at room temperature (23℃) for 1 h.
Untreated […] strain samples were used as a negative control (NC). Green fluorescence images […]
were captured using the blue wide-excitation mirror unit (U-FBWA; Olympus). Cell integrity was […]
confirmed by bright field (BF) images. Images of (DabFF) 3Dab-FAM permeated cells and the negative […]
controls were captured at similar exposure times to allow for comparison. Scale bar is 5 µm.
Enzymes for Biocatalysis: Sources, Biocatalytic Characteristic and Bioprocesses of Marine […]
Enzymes, Trincone, A., Ed. Woodhead Publishing Limited: Cambridge, 2013; pp 4 29-464.
electrospray ionization mass spectrometry for the characterization of kappa - and iota- […]
carrageenans. Application to the hybrid iota -/nu-carrageenans. Analytical chemistry 2005, 77, […]
Cerezo, A. S.; Erra-Balsells, R.; Matulewicz, M. C., Matrix -assisted laser desorption/ionization time-of-flight (MALDI-TOF) mass spectrometry analysis of oligosaccharides and […]
oligosaccharide alditols obtained by hydrolysis of agaroses and carrageenans, two important […]
types of red seaweed polysaccharides. Carbohydrate research 2010, 345, (2), 275-83.
(1 picture or pasted object on this page, not shown here)

NCC[C@H](NC(=O)[C@H](Cc1ccccc1)NC(=O)[C@H](Cc1ccccc1)NC(=O)[C@H](CCN)NC(=O)[C@H](Cc1ccccc1)NC(=O)[C@H](Cc1ccccc1)NC(=O)[C@H](CCN)NC(=O)[C@H](Cc1ccccc1)NC(=O)[C@H](Cc1ccccc1)NC(=O)[C@@H](N)CCN)C(=O)O [(DabFF)3Dab] (H-[Dab]FF[Dab]FF[Dab]FF[Dab]-OH)
Permeation of the membrane of Paenibacillus sp. strain YYML68: could efficiently and easily permeate the membrane
